According to US10471094B2, “Methods for reducing ischemia-reperfusion injury via targeted control of blood gases” (Cedars-Sinai Medical Center, priority 2013, dated 2019):

System: Canines
Assay: Canine ischemia/reperfusion (I/R) protocol, 3 hours no-flow LAD occlusion then reperfusion, MRI at week 8
Format: in vivo
Source text: Canines (n=9) underwent left thoracotomy at the 4th intercostal space and a hydraulic occluder was secured around the left-anterior descending coronary artery after the first principal diagonal. Subsequently a Doppler flow probe was affixed distal to the hydraulic occluder and animals were allowed to recover for 7 days. Following recovery, animals were subjected to ischemia/reperfusion (I/R) protocol and studied with magnetic resonance imaging. The ischemia protocol consisted of inflicting no-flow ischemia by inflating the hydraulic occlude (confirmed by the Doppler flow velocity) for 3 hours. Subsequently all animals were reperfused by deflation of the hydraulic occluder.

[1] = 100% O2 versus room air during reperfusion, week 8

O=O [100% O2, oxygen]
chronic scar size larger versus animals breathing room air during reperfusion [1]: approximately 25% | left ventricular ejection fraction (LVEF) reduced versus animals breathing room air during reperfusion [1]: 12% | LVEF at week 8 post MI (gas breathed during reperfusion, 3.0 T MRI, week 8 post I/R injury, left-ventricular ejection fraction): 39.7 +/− 4.9 | Scar Volume at week 8 post MI (% LV) (gas breathed during reperfusion, 3.0 T MRI, week 8 post I/R injury, scar volume as percentage of left ventricular volume): 15.0 +/− 3.8 % LV
